Laboratory results: the NIST ThermoML archive (doi:10.1016/j.tca.2015.01.022)

Experiment: molar heat capacity at constant pressure
Settings: 101.33 kPa, Small (less than 1 g) adiabatic calorimetry

CCCCCCCC[n+]1ccn(C)c1.F[B-](F)(F)F [1-methyl-3-octylimidazolium tetrafluoroborate]
molar heat capacity at constant pressure [J/K/mol]
Settings	Crystal	Liquid
215.19 K	–	463.2
215.24 K	350	–
216.42 K	352.2	–
217.13 K	–	463.5
217.18 K	355	–
218.47 K	357.6	–
219.08 K	–	463.8
219.11 K	360.4	–
220 K	349.9	463.8
220.51 K	362.9	–
221.02 K	365.7	463.8
222.53 K	369.1	–
222.93 K	371.1	–
222.96 K	–	464.1
224.55 K	375	–
224.82 K	376.7	–
224.9 K	–	464.7
226.56 K	381	–
226.7 K	382.4	–
226.85 K	–	464.9
228.55 K	387.4	–
228.58 K	388.3	–
228.8 K	–	465.8
230 K	364.9	465.8
230.44 K	395.1	–
230.53 K	394.5	–
230.75 K	–	466.6
232.29 K	402.4	–
232.49 K	402.1	–
234.12 K	411.7	–
234.44 K	412	–
235.93 K	423.8	–
236.36 K	424.6	–
237.7 K	441.5	–
238.24 K	445.5	–
239.43 K	472	–
240 K	379.9	468.9
240.06 K	487.8	–
245.81 K	388.6	471
248.34 K	–	472
249.07 K	–	472.3
250 K	–	472.6
250.32 K	–	472.8
251 K	–	473.1
252.27 K	–	473.7
252.93 K	–	473.9
254.22 K	–	474.5
254.87 K	–	474.8
256.17 K	–	475.4
256.8 K	–	475.6
258.12 K	–	476.2
258.74 K	–	476.5
260 K	–	477.3
260.07 K	–	477.3
260.67 K	–	477.6
262.02 K	–	478.2
262.61 K	–	478.5
263.97 K	–	479.3
264.54 K	–	479.6
265.92 K	–	480.1
266.48 K	–	480.4
267.87 K	–	481.3
268.42 K	–	481.6
269.82 K	–	482.1
270 K	–	482.4
270.35 K	–	482.4
271.77 K	–	483.2
272.29 K	–	483.5
273.73 K	–	484.4
274.23 K	–	484.7
275.68 K	–	485.2
276.16 K	–	485.5
277.63 K	–	486.6
278.1 K	–	486.6
279.58 K	–	487.8
280 K	–	487.7
281.53 K	–	488.9
283.48 K	–	489.7
285.44 K	–	490.9
287.39 K	–	492
289.34 K	–	493.1
290 K	–	493.2
291.29 K	–	494.2
293.24 K	–	495.4
295.19 K	–	496.5
297.15 K	–	497.3
298.15 K	–	497.8
299.1 K	–	498.5
300 K	–	498.9
301.05 K	–	499.6
303 K	–	500.7
304.95 K	–	502.1
306.9 K	–	503
308.86 K	–	504.4
310 K	–	504.8
310.81 K	–	505.2
312.76 K	–	506.4
314.71 K	–	507.5
316.67 K	–	508.9
318.62 K	–	510
320 K	–	510.9
320.57 K	–	511.1
322.53 K	–	512.3
324.48 K	–	513.4
326.44 K	–	514.8
328.39 K	–	515.9
330 K	–	517.1
330.34 K	–	517.1
332.3 K	–	518.5
334.25 K	–	519.9
336.21 K	–	521
338.16 K	–	522.4
340 K	–	523.6
340.11 K	–	523.8
342.07 K	–	524.7
344.02 K	–	526.4
345.98 K	–	527.2
347.93 K	–	528.9
349.89 K	–	530.3
350 K	–	530.3
351.85 K	–	531.7
353.8 K	–	533.1
355.76 K	–	534.2
357.71 K	–	535.7
359.66 K	–	536.8
360 K	–	537.1
361.61 K	–	538.2
363.57 K	–	539.3
365.52 K	–	540.7
367.47 K	–	542.4
370 K	–	544.2
